In ChEMBL document CHEMBL4811240, “Discovery of N-substituted sulfamoylbenzamide derivatives as novel inhibitors of STAT3 signaling pathway based on Niclosamide” (Eur J Med Chem, 2021):
Activity calls are given as the source filed them. The rule behind the calls is not given here.

Columns and labels:
MDA-MB-231 [1] = experiment: Induction of apoptosis in human MDA-MB-231 cells assessed as increase in cleaved PARP expression at 1 to 10 uM incubated for 24 hrs by Western blot analysis; format: functional, cell-based; conditions: dose 1-10 µM
[2] = molecular target: Proto-oncogene tyrosine-protein kinase Src (Homo sapiens) (UniProt P12931); experiment: Inhibition of full length SRC (1 to 536 residues) (unknown origin) expressed in Sf21 cells at 10 uM preincubated for 10 mins followed by peptide substrate addition relative to control
Proto-oncogene tyrosine-protein kinase Src (Homo sapiens), sequence (P12931 2-536 limits assumed): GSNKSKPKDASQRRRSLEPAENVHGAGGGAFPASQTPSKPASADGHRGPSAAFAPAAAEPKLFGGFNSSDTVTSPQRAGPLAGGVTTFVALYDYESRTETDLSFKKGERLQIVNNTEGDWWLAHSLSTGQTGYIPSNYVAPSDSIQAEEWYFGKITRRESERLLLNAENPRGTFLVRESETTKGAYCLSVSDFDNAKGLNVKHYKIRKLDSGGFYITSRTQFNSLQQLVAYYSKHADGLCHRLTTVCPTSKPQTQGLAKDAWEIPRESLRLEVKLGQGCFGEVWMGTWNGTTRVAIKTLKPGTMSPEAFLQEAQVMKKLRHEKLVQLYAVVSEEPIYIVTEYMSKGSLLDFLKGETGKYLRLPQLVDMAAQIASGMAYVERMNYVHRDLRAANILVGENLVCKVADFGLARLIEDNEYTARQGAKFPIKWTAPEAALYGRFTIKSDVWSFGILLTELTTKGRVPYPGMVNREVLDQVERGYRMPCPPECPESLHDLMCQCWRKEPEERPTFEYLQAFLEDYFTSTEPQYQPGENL

[3] = molecular target: Fibroblast growth factor receptor 3 (Homo sapiens) (UniProt P22607); experiment: Inhibition of FGFR3 (436 to 806 residues) (unknown origin) expressed in Sf21 cells at 10 uM preincubated for 10 mins followed by peptide substrate addition relative to control
MDA-MB-231 [4] = experiment: Induction of apoptosis in human MDA-MB-231 cells assessed as decrease in Bcl-xl expression at 1 to 10 uM incubated for 24 hrs by Western blot analysis; format: functional, cell-based; conditions: dose 1-10 µM
[5] = molecular target: Receptor-type tyrosine-protein kinase FLT3 (Homo sapiens) (UniProt P36888); experiment: Inhibition of recombinant human His-tagged FLT3 expressed in baculovirus expression system at 10 uM preincubated for 10 mins followed by peptide substrate addition relative to control
MDA-MB-231 [6] = experiment: Inhibition of human MDA-MB-231 cells migration a 1000 nM after 24 hrs by crystal violet staining based transwell migration assay; format: functional, cell-based
MDA-MB-231 [7] = experiment: Induction of apoptosis in human MDA-MB-231 cells assessed as apoptotic cells at 2.5 uM measured after 24 hrs by annexinV-FITC/propidium iodide staining based flow cytometry analysis (reference value: 2.49%); format: functional
[8] = molecular target: Fibroblast growth factor receptor 2 (Homo sapiens) (UniProt P21802); experiment: Inhibition of N-terminal GST-tagged FGFR2 (399 to 821 residues) (unknown origin) expressed in Sf21 cells at 10 uM preincubated for 10 mins followed by peptide substrate addition relative to control
Fibroblast growth factor receptor 2 (Homo sapiens), sequence (P21802 22-821 limits assumed): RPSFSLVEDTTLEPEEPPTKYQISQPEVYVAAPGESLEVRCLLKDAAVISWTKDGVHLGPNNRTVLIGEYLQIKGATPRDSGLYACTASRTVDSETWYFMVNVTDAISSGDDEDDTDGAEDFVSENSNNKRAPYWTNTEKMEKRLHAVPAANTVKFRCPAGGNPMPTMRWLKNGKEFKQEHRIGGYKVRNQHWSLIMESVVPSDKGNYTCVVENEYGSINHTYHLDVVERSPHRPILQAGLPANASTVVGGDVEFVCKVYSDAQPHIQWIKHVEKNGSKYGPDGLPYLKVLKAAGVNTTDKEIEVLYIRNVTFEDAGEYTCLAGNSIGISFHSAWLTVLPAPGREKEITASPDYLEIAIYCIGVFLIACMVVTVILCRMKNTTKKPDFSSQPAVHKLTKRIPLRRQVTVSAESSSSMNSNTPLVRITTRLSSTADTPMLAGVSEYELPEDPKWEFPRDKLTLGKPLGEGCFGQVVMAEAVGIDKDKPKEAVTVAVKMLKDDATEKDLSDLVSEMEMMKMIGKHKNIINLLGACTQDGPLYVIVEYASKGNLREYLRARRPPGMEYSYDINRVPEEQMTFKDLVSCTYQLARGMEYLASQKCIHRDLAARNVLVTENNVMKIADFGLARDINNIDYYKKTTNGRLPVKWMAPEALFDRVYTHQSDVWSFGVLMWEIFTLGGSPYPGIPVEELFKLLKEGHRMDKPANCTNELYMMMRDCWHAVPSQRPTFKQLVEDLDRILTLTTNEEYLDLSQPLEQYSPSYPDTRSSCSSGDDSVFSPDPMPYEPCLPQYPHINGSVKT

[9] = molecular target: Non-receptor tyrosine-protein kinase TYK2 (Homo sapiens) (UniProt P29597); experiment: Inhibition of TYK2 (871 to 1187 residues) (unknown origin) expressed in Sf21 cells at 10 uM preincubated for 10 mins followed by peptide substrate addition relative to control
[10] = molecular target: Wee1-like protein kinase (Homo sapiens) (UniProt P30291); experiment: Inhibition of Wee1 (215 to 646 residues) (unknown origin) expressed in Sf21 at 10 uM preincubated for 10 mins followed by peptide substrate addition relative to control
HCT-116 [11] = experiment: Antiproliferative activity against human HCT-116 cells assessed as inhibition of cell viability after 48 hrs by MTT assay; format: functional, cell-based; conditions: HCT-116, 48 h
[12] = molecular target: Signal transducer and activator of transcription 3 (Homo sapiens) (UniProt P40763); experiment: Inhibition of STAT3 promoter activity in human MDA-MB-231 cells at 0.5 uM incubated for 24 hrs by dual luciferase reporter assay; format: cell-based
Signal transducer and activator of transcription 3 (Homo sapiens), sequence (P40763 whole entry, the tested form may be a part): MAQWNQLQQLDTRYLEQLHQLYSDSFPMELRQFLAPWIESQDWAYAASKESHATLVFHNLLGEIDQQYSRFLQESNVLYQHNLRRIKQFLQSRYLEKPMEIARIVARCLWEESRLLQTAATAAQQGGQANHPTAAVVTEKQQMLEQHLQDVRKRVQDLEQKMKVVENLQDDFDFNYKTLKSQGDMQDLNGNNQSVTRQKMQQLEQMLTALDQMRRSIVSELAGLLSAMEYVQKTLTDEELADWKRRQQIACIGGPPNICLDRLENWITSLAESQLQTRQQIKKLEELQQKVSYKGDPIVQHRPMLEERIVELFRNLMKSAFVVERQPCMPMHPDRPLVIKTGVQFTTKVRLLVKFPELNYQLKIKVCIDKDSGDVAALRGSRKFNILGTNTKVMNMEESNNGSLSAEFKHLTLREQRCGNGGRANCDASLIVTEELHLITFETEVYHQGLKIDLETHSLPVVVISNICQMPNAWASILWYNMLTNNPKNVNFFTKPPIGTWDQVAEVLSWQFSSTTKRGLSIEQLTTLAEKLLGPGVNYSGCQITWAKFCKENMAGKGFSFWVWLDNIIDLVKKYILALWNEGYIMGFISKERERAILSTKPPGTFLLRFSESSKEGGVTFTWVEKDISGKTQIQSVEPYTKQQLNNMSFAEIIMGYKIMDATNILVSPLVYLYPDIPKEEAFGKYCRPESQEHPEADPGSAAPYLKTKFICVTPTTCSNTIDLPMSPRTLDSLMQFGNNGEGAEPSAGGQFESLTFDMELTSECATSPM

[13] = molecular target: Proto-oncogene tyrosine-protein kinase ROS (Homo sapiens) (UniProt P08922); experiment: Inhibition of N-terminal GST-tagged ROS1 (1883 to 2347 residues) (unknown origin) expressed in Sf21 cells at 10 uM preincubated for 10 mins followed by peptide substrate addition relative to control
[14] = molecular target: Signal transducer and activator of transcription 3 (Homo sapiens) (UniProt P40763); experiment: Inhibition of STAT3 phosphorylation at Y705 residue in human MDA-MB-231 cells incubated for 2 hrs by Western blotting analysis; format: cell-based; conditions: dose 1-10 µM
[15] = molecular target: Cyclin-dependent kinase 1/cyclin B1 (Homo sapiens) (UniProt P06493+P14635); experiment: Inhibition of N-terminal GST-tagged full length CDK1/cyclin B1 (unknown origin) expressed in Sf21 cells at 10 uM preincubated for 10 mins followed by peptide substrate addition relative to control
MDA-MB-231 [16] = experiment: Effect on total STAT3 expression in human MDA-MB-231 cells at 1 to 10 uM incubated for 2 hrs by Western blotting analysis; format: functional, cell-based; conditions: dose 1-10 µM
[17] = molecular target: Vascular endothelial growth factor receptor 1 (Homo sapiens) (UniProt P17948); experiment: Inhibition of recombinant human GST-tagged FLT1 (781 to 1338 residues) expressed in baculovirus expression system at 10 uM preincubated for 10 mins followed by peptide substrate addition relative to control
[18] = molecular target: Insulin-like growth factor 1 receptor (Homo sapiens) (UniProt P08069); experiment: Inhibition of IGF1R (959 to 1367 residues) (unknown origin) expressed in Sf21 cells at 10 uM preincubated for 10 mins followed by peptide substrate addition relative to control
[19] = molecular target: Fibroblast growth factor receptor 1 (Homo sapiens) (UniProt P11362); experiment: Inhibition of FGFR1 (398 to 822 residues) (unknown origin) expressed in Sf21 cells at 10 uM preincubated for 10 mins followed by peptide substrate addition relative to control
[20] = molecular target: Tyrosine-protein kinase JAK2 (Homo sapiens) (UniProt O60674); experiment: Inhibition of JAK2 (826 to 1132 residues) (unknown origin) expressed in Sf21 cells at 10 uM preincubated for 10 mins followed by peptide substrate addition relative to control
Tyrosine-protein kinase JAK2 (Homo sapiens), sequence (O60674 whole entry, the tested form may be a part): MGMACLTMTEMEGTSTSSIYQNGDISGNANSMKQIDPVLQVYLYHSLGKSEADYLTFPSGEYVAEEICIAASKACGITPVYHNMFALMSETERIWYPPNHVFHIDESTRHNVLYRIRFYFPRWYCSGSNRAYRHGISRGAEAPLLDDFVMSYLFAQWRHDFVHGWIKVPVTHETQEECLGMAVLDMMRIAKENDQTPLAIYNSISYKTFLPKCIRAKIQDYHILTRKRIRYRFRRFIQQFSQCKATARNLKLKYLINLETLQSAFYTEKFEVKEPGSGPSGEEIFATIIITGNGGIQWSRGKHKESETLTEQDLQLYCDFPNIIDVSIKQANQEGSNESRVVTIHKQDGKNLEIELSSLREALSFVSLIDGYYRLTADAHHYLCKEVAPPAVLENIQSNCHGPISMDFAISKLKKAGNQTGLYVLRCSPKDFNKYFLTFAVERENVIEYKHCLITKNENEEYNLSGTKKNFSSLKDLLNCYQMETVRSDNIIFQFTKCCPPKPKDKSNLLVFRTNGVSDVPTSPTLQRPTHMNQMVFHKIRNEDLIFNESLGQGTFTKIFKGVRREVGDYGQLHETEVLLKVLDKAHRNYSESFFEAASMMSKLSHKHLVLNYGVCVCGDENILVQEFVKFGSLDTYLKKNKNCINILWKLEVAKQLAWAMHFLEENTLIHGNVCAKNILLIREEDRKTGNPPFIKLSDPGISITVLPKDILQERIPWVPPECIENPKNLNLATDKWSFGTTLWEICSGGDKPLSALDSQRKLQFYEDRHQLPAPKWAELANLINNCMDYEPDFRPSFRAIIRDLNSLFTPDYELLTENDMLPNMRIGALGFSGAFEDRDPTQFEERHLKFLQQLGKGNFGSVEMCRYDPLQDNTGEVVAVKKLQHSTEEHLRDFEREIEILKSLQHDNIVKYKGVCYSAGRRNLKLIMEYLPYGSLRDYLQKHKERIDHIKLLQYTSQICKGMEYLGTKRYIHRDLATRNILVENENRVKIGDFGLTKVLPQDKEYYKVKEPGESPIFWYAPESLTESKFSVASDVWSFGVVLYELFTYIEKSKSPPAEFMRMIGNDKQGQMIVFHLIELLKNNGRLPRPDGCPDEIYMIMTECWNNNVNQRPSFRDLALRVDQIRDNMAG

[21] = molecular target: Mast/stem cell growth factor receptor Kit (Homo sapiens) (UniProt P10721); experiment: Inhibition of c-KIT (544 to 976 residues) (unknown origin) expressed in Sf21 cells at 10 uM preincubated for 10 mins followed by peptide substrate addition relative to control
Mast/stem cell growth factor receptor Kit (Homo sapiens), sequence (P10721 whole entry, the tested form may be a part): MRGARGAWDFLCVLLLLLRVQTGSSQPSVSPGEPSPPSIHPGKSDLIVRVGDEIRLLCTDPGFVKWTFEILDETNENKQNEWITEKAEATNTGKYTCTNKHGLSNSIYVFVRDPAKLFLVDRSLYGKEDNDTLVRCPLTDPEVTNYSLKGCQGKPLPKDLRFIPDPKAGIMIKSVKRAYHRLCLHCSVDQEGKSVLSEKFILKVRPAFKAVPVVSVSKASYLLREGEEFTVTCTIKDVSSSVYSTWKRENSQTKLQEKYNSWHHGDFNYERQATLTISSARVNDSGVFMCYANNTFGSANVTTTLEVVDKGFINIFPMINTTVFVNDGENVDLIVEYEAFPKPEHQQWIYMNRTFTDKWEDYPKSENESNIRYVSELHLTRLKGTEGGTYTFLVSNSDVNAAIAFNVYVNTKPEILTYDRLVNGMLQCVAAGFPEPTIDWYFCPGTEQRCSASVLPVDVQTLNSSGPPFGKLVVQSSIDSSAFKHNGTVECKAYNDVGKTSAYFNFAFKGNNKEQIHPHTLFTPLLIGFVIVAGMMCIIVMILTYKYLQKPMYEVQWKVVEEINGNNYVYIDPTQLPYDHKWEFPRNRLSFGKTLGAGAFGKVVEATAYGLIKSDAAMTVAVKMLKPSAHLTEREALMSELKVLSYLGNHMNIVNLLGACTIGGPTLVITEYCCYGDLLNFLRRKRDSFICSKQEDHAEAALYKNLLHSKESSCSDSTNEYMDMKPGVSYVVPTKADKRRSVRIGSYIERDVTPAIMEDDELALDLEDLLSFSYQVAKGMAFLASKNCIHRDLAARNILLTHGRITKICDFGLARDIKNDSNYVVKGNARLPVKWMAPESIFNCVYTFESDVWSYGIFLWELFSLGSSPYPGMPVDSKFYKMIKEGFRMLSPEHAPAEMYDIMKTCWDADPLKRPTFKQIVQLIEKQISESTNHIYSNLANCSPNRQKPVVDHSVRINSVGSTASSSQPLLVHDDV

[22] = molecular target: Hepatocyte growth factor receptor (Homo sapiens) (UniProt P08581); experiment: Inhibition of MET (956 to 1390 residues) (unknown origin) expressed in Sf21 cells at 10 uM preincubated for 10 mins followed by peptide substrate addition relative to control
[23] = molecular target: Dual specificity mitogen-activated protein kinase kinase 1 (Homo sapiens) (UniProt Q02750); experiment: Inhibition of N-terminal GST-tagged full length MEK1 (1 to 393 residues) (unknown origin) expressed in Sf21 cells at 10 uM preincubated for 10 mins followed by peptide substrate addition relative to control
MDA-MB-231 [24] = experiment: Induction of apoptosis in human MDA-MB-231 cells assessed as increase in cleaved caspase 9 expression at 1 to 10 uM incubated for 24 hrs by Western blot analysis; format: functional, cell-based; conditions: dose 1-10 µM
MDA-MB-231 [25] = experiment: Antiproliferative activity against human MDA-MB-231 cells assessed as inhibition of cell viability after 48 hrs by MTT assay; format: functional, cell-based; conditions: MDA-MB-231, 48 h
[26] = molecular target: RAC-beta serine/threonine-protein kinase (Homo sapiens) (UniProt P31751); experiment: Inhibition of human N-terminal His-tagged full length AKT2 expressed in Sf9 cells at 10 uM preincubated for 10 mins followed by peptide substrate addition relative to control
RAC-beta serine/threonine-protein kinase (Homo sapiens), sequence (P31751 whole entry): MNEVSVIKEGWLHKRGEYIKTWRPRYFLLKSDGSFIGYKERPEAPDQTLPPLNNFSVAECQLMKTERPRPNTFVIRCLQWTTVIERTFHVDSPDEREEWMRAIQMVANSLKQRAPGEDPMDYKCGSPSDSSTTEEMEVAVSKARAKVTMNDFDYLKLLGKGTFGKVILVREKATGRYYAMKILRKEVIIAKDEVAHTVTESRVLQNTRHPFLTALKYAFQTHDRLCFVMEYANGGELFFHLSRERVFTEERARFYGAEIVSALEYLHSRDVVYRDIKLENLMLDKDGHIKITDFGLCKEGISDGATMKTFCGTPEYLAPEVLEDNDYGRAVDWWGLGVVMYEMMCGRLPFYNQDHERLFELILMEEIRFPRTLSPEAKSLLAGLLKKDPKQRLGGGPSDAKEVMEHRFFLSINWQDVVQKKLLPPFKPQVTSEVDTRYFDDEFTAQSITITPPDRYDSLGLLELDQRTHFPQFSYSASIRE

L3.6pl = experiment: Antiproliferative activity against human L3.6 cells assessed as inhibition of cell viability at 10 uM after 48 hrs by MTT assay relative to control; format: functional
[27] = molecular target: Mitogen-activated protein kinase 1 (Homo sapiens) (UniProt P28482); experiment: Inhibition of N-terminal GST-tagged full length ERK2 (1 to 360 residues) (unknown origin) expressed in Escherichia coli at 10 uM preincubated for 10 mins followed by peptide substrate addition relative to control
Mitogen-activated protein kinase 1 (Homo sapiens), sequence (P28482 whole entry, the tested form may be a part): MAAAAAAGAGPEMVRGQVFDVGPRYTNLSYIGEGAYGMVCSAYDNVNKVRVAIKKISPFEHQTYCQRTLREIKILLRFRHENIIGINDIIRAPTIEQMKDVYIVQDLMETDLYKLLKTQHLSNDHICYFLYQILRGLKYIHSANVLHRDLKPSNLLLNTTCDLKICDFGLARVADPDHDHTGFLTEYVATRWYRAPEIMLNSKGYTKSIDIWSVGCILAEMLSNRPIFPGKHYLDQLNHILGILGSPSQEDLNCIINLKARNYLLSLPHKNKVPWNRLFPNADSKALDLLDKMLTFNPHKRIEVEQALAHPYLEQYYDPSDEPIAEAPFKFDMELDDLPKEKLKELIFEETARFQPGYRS

HCT-116 [28] = experiment: Antiproliferative activity against human HCT116 cells assessed as inhibition of cell viability at 10 uM after 48 hrs by MTT assay relative to control; format: functional

Compound: CC(C)(C)OC(=O)c1ccc(NC(=O)c2ccc(Cl)c(S(N)(=O)=O)c2)cc1
- Activity (MDA-MB-231 [1]): Active
- inhibition [2]: 1.42%
- inhibition [3]: 1.25%
- Activity (MDA-MB-231 [4]): Active
- inhibition [5]: 10.2%
- inhibition (MDA-MB-231 [6]): Active
- Activity (MDA-MB-231 [7]): 16.01%
- inhibition [8]: 5.28%
- inhibition [9]: -1.53%
- inhibition [10]: 4.76%
- IC50 (HCT-116 [11]): 690 nM
- inhibition [12]: 80.6%
- inhibition [13]: -3.38%
- inhibition [14]: Dose-Dependent Effect
- inhibition [15]: -2.27%
- inhibition (MDA-MB-231 [16]): Active
- inhibition [17]: 4.33%
- inhibition [18]: 2.93%
- inhibition [19]: 3.58%
- inhibition [20]: 4.77%
- inhibition [21]: 3.33%
- inhibition [22]: 0.13%
- inhibition [23]: 1.56%
- Activity (MDA-MB-231 [24]): Active
- IC50 (MDA-MB-231 [25]): 610 nM
- inhibition [26]: 3.38%
- inhibition at 10 µM (L3.6pl): 21.9%
- inhibition [27]: 0.78%
- inhibition at 10 µM (HCT-116 [28]): 85.3%
